For 7 compounds, IC50 and inhibition in vivo results are on record in patent US8710043B2, “TRPM8 antagonists and their use in treatments” (Amgen Inc., priority 2011, dated 2014).

Test [1] addresses T1, human TRPM8 (Homo sapiens, UniProt Q7Z2W7).
T1 construct: expressed in transfected cells; host or cells: Chinese hamster ovary (CHO) cells, T-REx tetracycline-inducible system, co-transfected with aequorin
As to the kind of experiment: Luminescence readout assay for measuring intracellular calcium, icilin activation. Format: cell-based. The conditions noted are these: CHO cells expressing human TRPM8, aequorin luminescence, 1 μM icilin activation; read-out: hTRPM8 IC50. The essentials:
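The read-out was luminescence reporting intracellular calcium, recorded by a CCD-based luminometer. Compounds were preincubated for 2.5 min before agonist challenge with 1 μM icilin. Human TRPM8 was expressed in a stable T-REx CHO line, induced with 0.5 μg/mL tetracycline the day before.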

The test system of test [2] is icilin induced wet-dog shakes. The experiment in a line: Inhibition of icilin induced shaking (wet-dog shakes) in rats. Format: in vivo. To be noted: Rattus norvegicus, po; dose 1 mg/kg p.o., 2 h before icilin; male Sprague Dawley rats; shakes counted for 30 min post-icilin. The procedure: Inhibition of Icilin Induced Shaking in Rats
Example compounds at doses ranging from 0.01 to 3 mg/kg (p.o, suspended in 5% Tween80/Oralplus or suspended in 2% HPMC-1% Tween-80 pH2.2 with MSA, 5 mL/kg) were administered to male Sprague Dawley rats (200-300 g, Harlan, n=6-8/treatment) 2 h before icilin to assess the ability to block the spontaneous wet-dog shake phenomena induced by icilin (i.p., suspended in 100% PEG400 at 0.5 mg/kg, 1 mL/kg or p.o., suspended in 2% HPMC-1% Tween-80 at 3 mg/kg, 2.5 mL/kg). Spontaneous wet-dog shakes were counted manually by two blinded observers or using LABORAS automation (Metris) for 30 min post-icilin.

T1 sequence (Q7Z2W7 whole entry): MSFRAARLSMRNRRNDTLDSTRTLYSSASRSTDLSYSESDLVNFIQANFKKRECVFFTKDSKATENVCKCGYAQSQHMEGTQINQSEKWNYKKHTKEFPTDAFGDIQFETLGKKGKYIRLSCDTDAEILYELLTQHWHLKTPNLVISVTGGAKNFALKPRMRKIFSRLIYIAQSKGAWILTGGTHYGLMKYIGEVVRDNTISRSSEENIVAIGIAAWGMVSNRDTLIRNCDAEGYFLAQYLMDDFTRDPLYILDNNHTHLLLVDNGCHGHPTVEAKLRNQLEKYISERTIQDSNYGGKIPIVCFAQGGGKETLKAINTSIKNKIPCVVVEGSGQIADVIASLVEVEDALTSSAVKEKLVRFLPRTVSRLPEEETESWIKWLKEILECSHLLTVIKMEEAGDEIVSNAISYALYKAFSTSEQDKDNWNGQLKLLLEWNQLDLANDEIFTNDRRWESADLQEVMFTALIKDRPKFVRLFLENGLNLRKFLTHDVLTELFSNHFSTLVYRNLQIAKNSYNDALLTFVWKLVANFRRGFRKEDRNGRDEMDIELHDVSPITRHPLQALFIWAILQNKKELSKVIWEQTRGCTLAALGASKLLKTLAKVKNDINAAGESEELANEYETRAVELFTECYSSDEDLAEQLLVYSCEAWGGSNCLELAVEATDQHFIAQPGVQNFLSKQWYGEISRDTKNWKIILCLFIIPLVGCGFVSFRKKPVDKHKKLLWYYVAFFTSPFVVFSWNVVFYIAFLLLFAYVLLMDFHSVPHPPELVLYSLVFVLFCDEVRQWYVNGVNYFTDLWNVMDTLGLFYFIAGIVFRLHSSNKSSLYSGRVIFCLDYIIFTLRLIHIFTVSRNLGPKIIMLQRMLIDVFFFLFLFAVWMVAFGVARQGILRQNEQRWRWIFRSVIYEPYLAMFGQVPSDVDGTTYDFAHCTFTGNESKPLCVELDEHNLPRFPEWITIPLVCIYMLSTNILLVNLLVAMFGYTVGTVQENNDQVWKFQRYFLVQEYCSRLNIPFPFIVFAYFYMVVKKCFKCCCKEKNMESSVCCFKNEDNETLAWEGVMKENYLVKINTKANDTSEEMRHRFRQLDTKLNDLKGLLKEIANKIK

`O=C(N[C@@H](c1ccc(OC(F)(F)F)c(F)c1)c1ccccn1)c1ccc(=O)[nH]c1` [Example 293, (S)-N-((3-fluoro-4-(trifluoromethoxy)phenyl)(pyridin-2-yl)methyl)-6-oxo-1,6-dihydropyridine-3-carboxamide]: the IC50 (usually the concentration that gives 50% inhibition) in test [1] was 13.7 nM. Moreover, the inhibition in vivo (as a rule, the share of the control response that was lost under treatment) at 1 mg/kg in test [2] came to 96%.
For `O=C(N[C@@H](c1ccc(OC(F)(F)F)cc1)c1ccccn1)c1ccc2oc(=O)[nH]c2c1` [Example 362, (S)-2-oxo-N-(pyridin-2-yl(4-(trifluoromethoxy)phenyl)methyl)-2,3-dihydrobenzo[d]oxazole-5-carboxamide], in that order: 4.2 nM and 98%.
Consider `O=C(N[C@@H](c1ccc(C(F)(F)F)cc1)c1ncccc1F)c1ccc(=O)n(CCO)c1` [Example 370, (S)-N-((3-fluoropyridin-2-yl)(4-(trifluoromethyl)phenyl)methyl)-1-(2-hydroxyethyl)-6-oxo-1,6-dihydropyridine-3-carboxamide], for which the IC50 in test [1] is 33.7 nM. Further, the inhibition in vivo at 1 mg/kg in test [2] worked out at 50%.
On to `Cc1cc(C(=O)N[C@@H](c2ccc(C(F)(F)F)cc2)c2ncccc2F)c[nH]c1=O` [Example 373, (S)-N-((3-fluoropyridin-2-yl)(4-(trifluoromethyl)phenyl)methyl)-5-methyl-6-oxo-1,6-dihydropyridine-3-carboxamide], for which the IC50 in test [1] came to 20.6 nM. This compound also had an inhibition in vivo at 1 mg/kg in test [2] of 64%.
`C[C@@H](O)Cn1cc(C(=O)N[C@@H](c2ccc(OC(F)(F)F)c(F)c2)c2ncccc2F)ccc1=O` [Example 299, N-((S)-(3-fluoro-4-(trifluoromethoxy)phenyl)(3-fluoropyridin-2-yl)methyl)-1-((R)-2-hydroxypropyl)-6-oxo-1,6-dihydropyridine-3-carboxamide]: in test [1], the IC50 was found to be 17.5 nM. This compound returned an inhibition in vivo at 1 mg/kg in test [2] of 56%.
On to `O=C(N[C@@H](c1ccc(OC(F)(F)F)c(F)c1)c1ncccc1F)c1ccc2[nH]c(=O)oc2n1` [Example 426, (S)—N-((3-fluoro-4-(trifluoromethoxy)phenyl)(3-fluoropyridin-2-yl)methyl)-2-oxo-1,2-dihydrooxazolo[5,4-b]pyridine-5-carboxamide], for which the IC50 in test [1] worked out at 9.7 nM. The inhibition in vivo at 1 mg/kg in test [2] came out at 53%.
Consider `Cn1cc(C(=O)N[C@@H](c2ccc(OC(F)(F)F)c(F)c2)c2ncccc2F)ccc1=O` [Example 103, (S)-N-((3-fluoro-4-(trifluoromethoxy)phenyl)(3-fluoropyridin-2-yl)methyl)-1-methyl-6-oxo-1,6-dihydropyridine-3-carboxamide], for which the IC50 in test [1] was 7.8 nM. Moreover, testing at 1 mg/kg in test [2] gave an inhibition in vivo of 97%.
